US4912227A, “1,2,8,8A-tetrahydrocyclopropa(c)pyrrolo(3,2-e)-indol-4-(5H)-ones and related compounds” (The Upjohn Company, priority 1985, dated 1990)
In brackets after ≈: the same amount, converted by molar mass.

Columns and labels:
[1] = test system: murine L1210 tumor cells; experiment: cytotoxic activity against murine L1210 tumor cells in suspension (3-day cell growth); assay type: cell-based; conditions: for IC50 / IC90: Mus musculus, 72 h; for IC50: read-out: L-1210 (3-Day Cell Growth) ID50; for IC90: read-out: L-1210 (3-Day Cell Growth) ID90
Description: Many of the compounds of the subject invention have useful cytotoxic activity against murine L1210 tumor cells in suspension, which is a standard model for such tests before the compounds are tested in humans. […] Following is a table showing the results of testing various compounds against L1210 in suspension using standard, well-known procedures. The compounds are identified by an internal designation called "U-" number. The structural identify of the "U-" numbered compounds is shown in Chart I.

[2] = test system: P388 leukemia; experiment: antitumor activity in P388 leukemic mice, intraperitoneal; assay type: in vivo; conditions: for ILS at 0.1 mg/kg: at 0.10 mg./kg.
Description: These murine test systems are predictive for clinically useful human antitumor agents (see, for example, A. Geldin, J. M. Vendetti, J. S. MacDonald, F. M. Muggia, J. E. Henney and V. T. DeVita, European J. Cancer, Vol. 17, pp. 129-142, 1981; J. M. Vendetti, Cancer Treatment Reports, Vol. 67, pp. 767-772, 1983; and J. M. Vendetti, R. A. Wesley, and J. Plowman, Advances in Pharmacology and Chemotherapy, Vol. 20, pp. 1-20, 1984), and it is therefore presumed that the compounds of the subject invention will be useful in the control and treatment of cancer in humans when given, for example, intravenously in doses of 0.001 to about 10 mg. per kg. of body weight per day, the exact dose depending on the age, weight and condition of the patient, and on the frequency of administration. Following is a table showing the results of testing various compounds intraperitoneally against P388 leukemic mice using standard well-known procedures (In Vivo cancer, Models, NIH Publication No. 84-2635, 1984). The structural identify of the "U-" numbered compounds is shown in Chart I. In the table %ILS refers to percent increase in life span of treated animals over controls.

[3] = test system: Bacillus subtilis; experiment: antimicrobial activity
[4] = test system: Klebsiella pneumonia; experiment: antimicrobial activity
[5] = test system: Sarcina lutea; experiment: antimicrobial activity
[6] = test system: Escherichia coli; experiment: antimicrobial activity
[7] = test system: Proteus vulgaris; experiment: antimicrobial activity
[8] = test system: Staphylococcus aureus; experiment: antimicrobial activity
[9] = test system: Salmonella schottmeulerri; experiment: antimicrobial activity
[10] = test system: Mycobacterium avium; experiment: antimicrobial activity
[11] = test system: Saccharomyces pastorianus; experiment: antimicrobial activity
[12] = test system: Penicillium oxalicum; experiment: antimicrobial activity
[13] = test system: B16 melanoma; experiment: B16 melanoma implanted subcutaneously in mice, single intravenous dose; assay type: in vivo
Description: (§1) These characteristics are advantageous for antitumor agents.

[14] = test system: M5076 ovarian sarcoma; experiment: lifespan of mice implanted with M5076 ovarian sarcoma; assay type: in vivo
Description: as §1

[15] = test system: Lewis carcinoma; experiment: lifespan of mice implanted with Lewis carcinoma; assay type: in vivo
Description: as §1

[16] = test system: human lung tumor (Lx-1 carcinoma); experiment: human lung tumor (Lx-1 carcinoma) xenograft in nude mice; assay type: in vivo
Description: as §1

[17] = test system: solid tumors; experiment: activity against solid tumors; parameters: species or system mice; conditions: mouse, in vivo
Description: as §1

[18] = solubility in aqueous solution; assay type: physicochemical
[19] = stability in aqueous solution; assay type: physicochemical
[20] = Mus musculus, P388, ip, read-out: P388 % ILS (percent increase in life span over controls)

COc1c(O)ccc2cc(C(=O)N3CC4CC45C3=CC(=O)c3[nH]cc(C)c35)[nH]c12 (stereo not drawn) [U-67,785, 1,2,8,8a-tetrahydro-7-methyl-2-[(6-hydroxy-7-methoxy-1H-indol-2-yl)carbonyl]cyclopropa[c]pyrrolo[3,2-e]indol-4(5H)-one]
IC50 [1]: 0.072 ng/mL (≈ 0.185 nM) | IC90 [1]: 0.19 ng/mL (≈ 0.488 nM) | ILS at 0.06 mg/kg ([2]; Mus musculus, P388, ip, at 0.06 mg./kg., read-out: P388 % ILS (percent increase in life span over controls)): 60%

Cc1c[nH]c2c1C13CC1CN(C(=O)c1ccccc1)C3=CC2=O (stereo not drawn) [U-66,866, 1,2,8,8a-tetrahydro-7-methyl-2-benzoylcyclopropa[c]pyrrolo[3,2-e]indol-4(5H)-one]
IC50 [1]: 1.5 ng/mL (≈ 4.93 nM) | IC90 [1]: 4.5 ng/mL (≈ 14.8 nM) | ILS at 12 mg/kg ([2]; Mus musculus, P388, ip, at 12 mg./kg., read-out: P388 % ILS (percent increase in life span over controls)): 71%

Cc1c[nH]c2c1C13CC1CN(C(=O)c1cc4cc(NC(=O)c5cc6cc(NC(N)=O)ccc6[nH]5)ccc4[nH]1)C3=CC2=O (stereo not drawn) [U-69,060, 1,2,8,8a-tetrahydro-7-methyl-2-[[5-[[[5-ureido-1H-indol-2-yl]carbonyl]amino]-1H-indol-2-yl]carbonyl]cyclopropa[c]pyrrolo[3,2-a]indol-4(5H)-one]
ILS at 0.1 mg/kg [2, 20]: 138%

Cc1c[nH]c2c1C13CC1CN(C(=O)c1ccc4ccccc4n1)C3=CC2=O (stereo not drawn) [U-68,749, 1,2,8,8a-tetrahydro-7-methyl-2-(quinolinylcarbonyl)cyclopropa[c]pyrrolo[3,2-e]indol-4(5H)-one]
IC50 [1]: 3.4 ng/mL (≈ 9.57 nM) | IC90 [1]: 8.4 ng/mL (≈ 23.6 nM)

Cc1c[nH]c2c1C13CC1CN(C(=O)c1cc4ccccc4[nH]1)C3=CC2=O (stereo not drawn) [U-66,694, 1,2,8,8a-tetrahydro-7-methyl-2-(1H-indol-2-ylcarbonyl)cyclopropa[c]pyrrolo(3,2-c]indol-4(5H)-one]
IC50 [1]: 0.15 ng/mL (≈ 0.437 nM) | IC90 [1]: 0.34 ng/mL (≈ 0.99 nM) | ILS at 0.63 mg/kg ([2]; Mus musculus, P388, ip, at 0.63 mg./kg., read-out: P388 % ILS (percent increase in life span over controls)): 164% | activity against Bacillus subtilis [3]: have activity against | activity against Klebsiella pneumonia [4]: have activity against | activity against Sarcina lutea [5]: have activity against | activity against Escherichia coli [6]: have activity against | activity against Proteus vulgaris [7]: have activity against | activity against Staphylococcus aureus [8]: have activity against | activity against Salmonella schottmeulerri [9]: have activity against | activity against Mycobacterium avium [10]: have activity against | activity against Saccharomyces pastorianus [11]: have activity against | activity against Penicillium oxalicum [12]: have activity against

CC(=O)N1CC(COS(C)(=O)=O)c2c1cc(O)c1[nH]cc(C)c21 (stereo not drawn) [U-66,665]
IC50 [1]: 9 ng/mL (≈ 26.6 nM) | IC90 [1]: 32 ng/mL (≈ 94.6 nM) | activity against Bacillus subtilis [3]: have activity against | activity against Klebsiella pneumonia [4]: have activity against | activity against Sarcina lutea [5]: have activity against | activity against Escherichia coli [6]: have activity against | activity against Proteus vulgaris [7]: have activity against | activity against Staphylococcus aureus [8]: have activity against | activity against Salmonella schottmeulerri [9]: have activity against | activity against Mycobacterium avium [10]: have activity against | activity against Saccharomyces pastorianus [11]: have activity against | activity against Penicillium oxalicum [12]: have activity against

Cc1c[nH]c2c1C13CC1CNC3=CC2=O (stereo not drawn) [U-66,777]
IC50 [1]: 180 ng/mL (≈ 899 nM) | IC90 [1]: 920 ng/mL (≈ 4590 nM)

Cc1c[nH]c2c1C13CC1CN(C(=O)c1cc4cc(NC(N)=O)ccc4[nH]1)C3=CC2=O (stereo not drawn) [U-69,059, 1,2,8,8a-tetrahydro-7-methyl-2-[[5-ureido-1H-indol-2-yl]carbonyl]cyclopropa[c]pyrrolo[3,2-e]indol-4(5H)-one]
P388 cures ([2]; at 0.5 mg./kg.): 4/6

Cc1c[nH]c2c1C13CC1CN(C(=O)c1ccc[nH]1)C3=CC2=O (stereo not drawn) [U-68,819, 1,2,8,8a-tetrahydro-7-methyl-2-(2-pyrrolylcarbonyl)cyclopropa[c]pyrrolo[3,2-e]indol-4(5H)-one]
IC50 [1]: 0.48 ng/mL (≈ 1.64 nM) | IC90 [1]: 1.5 ng/mL (≈ 5.11 nM) | ILS at 1 mg/kg ([2]; Mus musculus, P388, ip, at 1 mg./kg., read-out: P388 % ILS (percent increase in life span over controls)): 71%

Cc1c[nH]c2c1C13CC1CN(C(=O)c1cc4cc(NC(=O)c5cc6cc(NC(=O)c7ccccc7)ccc6[nH]5)ccc4[nH]1)C3=CC2=O (stereo not drawn) [U-68,880]
IC50 [1]: 0.008 ng/mL (≈ 0.0129 nM) | IC90 [1]: 0.019 ng/mL (≈ 0.0306 nM) | ILS at 0.1 mg/kg [2, 20]: 71%

Cc1c[nH]c2c1C13CC1CN(C(=O)c1cc4cc(NC(=O)c5ccccc5)ccc4[nH]1)C3=CC2=O (stereo not drawn) [U-68,846, 1,2,8,8a-tetrahydro-7-methyl-2-[[5-benzoylamino-1H-indol-2-yl]carbonyl]cyclopropa[c]pyrrolo[3,2-e]indol-4(5H)-one]
IC50 [1]: 0.034 ng/mL (≈ 0.0735 nM) | IC90 [1]: 0.096 ng/mL (≈ 0.208 nM) | ILS at 0.05 mg/kg ([2]; Mus musculus, P388, ip, at 0.05 mg./kg., read-out: P388 % ILS (percent increase in life span over controls)): 82%

COc1ccc2[nH]c(C(=O)N3CC4CC45C3=CC(=O)c3[nH]cc(C)c35)cc2c1 (stereo not drawn) [U-67,786]
IC50 [1]: 0.046 ng/mL (≈ 0.123 nM) | IC90 [1]: 0.1 ng/mL (≈ 0.268 nM)

CC(=O)N1CC2CC23C1=CC(=O)c1[nH]cc(C)c13 (stereo not drawn) [U-66,664]
IC50 [1]: 4.8 ng/mL (≈ 19.8 nM) | IC90 [1]: 18 ng/mL (≈ 74.3 nM)

Cc1c[nH]c2c1C13CC1CN(C(=O)c1cc4cc(NC(=O)c5cc6ccccc6[nH]5)ccc4[nH]1)C3=CC2=O (stereo not drawn) [U-68,415]
IC50 [1]: 0.018 ng/mL (≈ 0.0359 nM) | IC90 [1]: 0.044 ng/mL (≈ 0.0877 nM) | P388 cures ([2]; at 0.05 mg./kg.): 4/6

Cc1c[nH]c2c1C13CC1CN(S(C)(=O)=O)C3=CC2=O (stereo not drawn) [U-62,736]
L-1210 (3-Day Cell Growth) ID50 [1]: 39 ng/mL | L-1210 (3-Day Cell Growth) ID90 [1]: 180 ng/mL

Cc1c[nH]c2c1C13CC1CN(C(=O)c1cc4cc(NC#N)ccc4[nH]1)C3=CC2=O (stereo not drawn) [U-69,058, (1,2,8,8a)-tetrahydro-7-methyl-2-2[[5-cyanoamino-1H-indol-2-yl]carbonyl]cyclopropa[c]pyrrolo[3,2-e]indol-4(5H)-one]
ILS at 0.5 mg/kg ([2]; Mus musculus, P388, ip, at 0.50 mg./kg., read-out: P388 % ILS (percent increase in life span over controls)): 96%

Cc1c[nH]c2c1[C@@]13C[C@@H]1CN(C(=O)c1cc4cc(NC(=O)c5cc6ccccc6o5)ccc4[nH]1)C3=CC2=O [U-73,975]
increase in life span over control (non-drug treated) animals [13]: 61% | lifespan of mice implanted with M5076 ovarian sarcoma [14]: significantly increased the lifespan | lifespan of mice implanted with Lewis carcinoma [15]: significantly increased the lifespan | growth inhibition of human lung tumor (Lx-1 carcinoma) xenograft [16]: significantly inhibited the growth | activity against solid tumors [17]: particularly good activity against solid tumors | solubility in aqueous solution [18]: good solubility | stability in aqueous solution [19]: good solubility and stability characteristics in aqueous solution | activity against Klebsiella pneumonia [4]: has activity against | activity against Escherichia coli [6]: has activity against | activity against Staphylococcus aureus [8]: has activity against
